From patent publication US20110159479A1, “GENETIC POLYMORPHISMS IN THE CYTOCHROME P450 GENE WITH CLOPIDOGREL RESISTANCE” (Industry-University Cooperation Foundation Yonsei University, priority 2009, published 2011)
One block for each compound: values may come before it.

Key:
[1] = VerifyNow P2Y12 platelet-function assay in CAD patients with drug-eluting stents on clopidogrel; format: in vivo, human
Description: (§1) From October 2006 to July 2007, 450 consecutive patients who underwent successful percutaneous coronary intervention (PCI) with drug-eluting stents (DES) were randomly assigned to treatment with dual anti-platelet regimens (aspirin plus clopidogrel, n=225) or triple antiplatelet regimens (aspirin plus clopidogrel plus cilostazol, n=225). Inclusion criteria were: symptomatic coronary artery disease (CAD) or documented myocardial ischemia (by treadmill exercise testing or sestamibi scan); angiographic evidence of 50% diameter stenosis and post procedure Thromobolysis In Myocardial Infarction (TIMI) flow grade 3. Exclusion criteria were: contraindication to antiplatelet agents; previous allergy or intolerance of aspirin or clopidogrel; treatment with warfarin; active bleeding; known platelet dysfunction; abnormal platelet count (<100,000/mm^3). Patients received a 300 mg loading dose of clopidogrel at least 12 hours before the stenting. Stents were deployed according to standard techniques. The maintenance dose for each antiplatelet agent was 100 mg once a day for aspirin, 75 mg once a day for clopidogrel, and 100 mg twice a day for cilostazol. Among the enrolled patients, 387 patients were analyzed for clopidogrel resistance by VerifyNow P2Y12 system (Accumetrics, San Diego, Calif.), and blood sampling for genetic analysis.
(§2) The VerifyNow P2Y12 system is a rapid platelet-function, cartridge based assay designed to directly measure the effects of clopidogrel on the P2Y12 receptor. Results are expressed as P2Y12 reaction units (PRUs) and percentage inhibition. PRU reports the amount of P2Y12 receptor mediated aggregation.
(§3) Values were expressed as mean±SD. Chi-square test for goodness of fit was used to verify agreement with Hardy-Weinberg equilibrium (HWE) using Fisher's exact test. Comparison of discrete variables was performed using the Chi-square test analysis or Fisher's exact test. Comparison of continuous variables between the two study groups was performed using the Student's t-test. Multivariate logistic regression analysis was performed to determine the independent association of CYP gene polymorphisms with clopidogrel resistance. Odds ratios (ORs) were calculated with 95% confidence intervals (CIs) for the relative risk of clopidogrel resistance related to genotypes. Statistical analysis was performed with SPSS 15.0 (SPSS Inc, Chicago, Ill.). All values of P<0.05 were considered statistically significant.

P2Y12 receptor = molecular target: T1, P2Y12 receptor (Homo sapiens, UniProt Q9H244); assay: as above; format: in vivo; conditions: for % inhibition of platelet activity: mean ± SD; for Rate of clopidogrel resistance: subjects with CYP2C19*3 A allele
T1 construct: PRU reports the amount of P2Y12 receptor mediated aggregation; from tissue; host or cells: platelets in blood of patients (VerifyNow P2Y12 system, Accumetrics)
Description: as §1, §2, §3

[2] = patients following coronary stenting; previous reports; cited from earlier work

T1 sequence (Q9H244 whole entry): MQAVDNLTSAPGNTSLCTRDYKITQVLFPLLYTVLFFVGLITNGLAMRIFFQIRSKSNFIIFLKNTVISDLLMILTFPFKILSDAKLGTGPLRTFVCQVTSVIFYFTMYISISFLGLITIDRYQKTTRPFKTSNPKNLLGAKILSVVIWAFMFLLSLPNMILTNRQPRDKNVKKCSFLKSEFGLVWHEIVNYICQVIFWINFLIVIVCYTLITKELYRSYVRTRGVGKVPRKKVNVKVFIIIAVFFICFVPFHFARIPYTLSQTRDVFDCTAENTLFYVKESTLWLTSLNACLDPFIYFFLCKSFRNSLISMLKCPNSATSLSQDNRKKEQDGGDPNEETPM

Patients on cilostazol, number (percentage of group) ([1]; clopidogrel resistant group (Resistance)): 32 (28.6%)
Patients on cilostazol, number (percentage of group) ([1]; clopidogrel responsive group (No resistance)): 158 (57.5%)
Compound: O=C1CCc2cc(OCCCCc3nnnn3C3CCCCC3)ccc2N1 [Cilostazol]

Clopidogrel resistance (percent inhibition <20%), proportion of patients (P2Y12 receptor; 387 CAD patients with DES insertion, 112 patients): 28.9%
% inhibition of platelet activity (P2Y12 receptor; CYP1A1 rs1048943, codominant, genotype AA (211)): 32.5 ± 22.3%
% inhibition of platelet activity (P2Y12 receptor; CYP1A1 rs1048943, codominant, genotype AG (153)): 37.7 ± 24.2%
% inhibition of platelet activity (P2Y12 receptor; CYP1A1 rs1048943, codominant, genotype GG (20)): 38.7 ± 24.4%
% inhibition of platelet activity (P2Y12 receptor; CYP1A1 rs1048943, dominant, genotype AA (210)): 32.5 ± 22.3%
% inhibition of platelet activity (P2Y12 receptor; CYP1A1 rs1048943, dominant, genotype AG/GG (170)): 37.8 ± 24.2%
% inhibition of platelet activity (P2Y12 receptor; CYP1A1 rs1048943, recessive, genotype AA/AG (361)): 34.7 ± 23.2%
% inhibition of platelet activity (P2Y12 receptor; CYP1A1 rs1048943, recessive, genotype GG (19)): 38.7 ± 24.4%
% inhibition of platelet activity (P2Y12 receptor; CYP2C19*2 rs4244285, codominant, genotype AA (39)): 30.9 ± 21.7%
% inhibition of platelet activity (P2Y12 receptor; CYP2C19*2 rs4244285, codominant, genotype GA (133)): 32.5 ± 21.6%
% inhibition of platelet activity (P2Y12 receptor; CYP2C19*2 rs4244285, codominant, genotype GG (210)): 37.2 ± 24.5%
% inhibition of platelet activity (P2Y12 receptor; CYP2C19*2 rs4244285, dominant, genotype GA/AA (172)): 32.1 ± 21.6%
% inhibition of platelet activity (P2Y12 receptor; CYP2C19*2 rs4244285, dominant, genotype GG (210)): 37.2 ± 24.5%
% inhibition of platelet activity (P2Y12 receptor; CYP2C19*2 rs4244285, recessive, genotype AA (39)): 30.9 ± 21.7%
% inhibition of platelet activity (P2Y12 receptor; CYP2C19*2 rs4244285, recessive, genotype GG/GA (343)): 35.3 ± 23.5%
% inhibition of platelet activity (P2Y12 receptor; CYP2C19*3 rs4986893, codominant, genotype AA (2)): 17.0 ± 24.0%
% inhibition of platelet activity (P2Y12 receptor; CYP2C19*3 rs4986893, codominant, genotype GA (68)): 24.9 ± 20.1%
% inhibition of platelet activity (P2Y12 receptor; CYP2C19*3 rs4986893, codominant, genotype GG (316)): 36.9 ± 23.4%
% inhibition of platelet activity (P2Y12 receptor; CYP2C19*3 rs4986893, dominant, genotype GA/AA (70)): 24.6 ± 20.0%
% inhibition of platelet activity (P2Y12 receptor; CYP2C19*3 rs4986893, dominant, genotype GG (316)): 36.9 ± 23.4%
% inhibition of platelet activity (P2Y12 receptor; CYP2C19*3 rs4986893, recessive, genotype AA (2)): 17.0 ± 24.0%
% inhibition of platelet activity (P2Y12 receptor; CYP2C19*3 rs4986893, recessive, genotype GG/GA (384)): 34.8 ± 23.3%
Rate of clopidogrel resistance (P2Y12 receptor; dual regimen therapy (aspirin plus clopidogrel)): 57.6%
Rate of clopidogrel resistance (P2Y12 receptor; triple regimen therapy (aspirin plus clopidogrel plus cilostazol)): 37.1%
Compound: COC(=O)[C@H](c1ccccc1Cl)N1CCc2sccc2C1 [clopidogrel, (+)-(S)-methyl 2-(2-chlorophenyl)-2-(6,7-dihydrothieno[3,2-c]pyridin-5(4H)-yl)acetate]
Prevalence of clopidogrel nonresponsiveness [2]: 5-44%
